Patent US7078389B2, “Chemically modified oligonucleotide for site-directed mutagenesis” (priority 1993, dated 2006)
“Also recorded” adds a separate entry of the source. {Pso} = 4'-hydroxymethyl-4,5',8-trimethylpsoralen through a two-carbon linker arm and a phosphodiester

How the values were obtained:
supF gene = conditions: free psoralen plus UVA, published data, FIG. 2B/5B; cited from earlier work
[1] = tested on: supF gene (250 bp fragment); assay: Triplex binding assay (32P-labelled oligonucleotide, gel electrophoresis); design: species or system E. coli; conditions: for Binding of oligonucleotide to supF gene fragment: 32P-labelled oligomer 6×10^−8 M, oligomer:supF about 1:1, 2 hours at 37 degrees; for Competition with 32P-labelled AG10 for binding to supF: unlabelled competitor at 200-fold molar excess
Protocol: The target gene chosen was supF, an E. coli amber suppressor tyrosine tRNA gene, contained within the genome of a lambda phage vector, lambda supF as shown in FIG. 1. A 10 base homopurine oligonucleotide AG10 (5′AGGAAGGGGG 3′) capable of forming a triple strand at positions 167–176 in the supF gene was identified.
The 250 bp supF target was generated from lambda supF using the polymerase chain reaction. Each oligo (200 ng) was labelled with 50 μCi of gamma-^32P-ATP (Amersham, Arlington Heights, Ill.) and separated from unreacted gamma^32P-ATP by passage through a G-25 spin column (Boehringer Mannheim, Indianapolis, Ind.). The concentration of oligomer in the reaction mixture was 6×10^−8 M and the oligomer:supF ratio was approximately 1:1 on a molar basis. When present, competitors were used at 200-fold molar excess.
Following the 2 hour binding step, reaction mixtures were run on a 4% acrylamide gel in 90 mM Tris base, 90 mM boric acid, 20 mM MgCl2 with a 20% acrylamide plug. A 100 bp ladder (BRL, Bethesda, Md.) was end-labelled as described for oligomers and run on gels as a size reference. Following a 4 hour run at constant voltage (150 V), the gel was visualized by autoradiography for 1 hour using Kodak X-AR film. […] To assay for triplex formation, ^32P-labeled oligonucleotides, either AG10 (^5 AGGAAGGGGG^3) (SEQ ID NO:2) or the reverse sequence oligomer (GA10), were incubated with a […] double-stranded fragment containing the entire supF gene. The products of the binding reactions were visualized by polyacrylamide gel electrophoresis and autoradiography.
When no supF target DNA was present, there was no band observed at this position. […] In lanes 5–8, no binding of the ^32P-labelled GA10 to supF was detected: GA10 alone without supF; GA10 plus supF; GA10 plus supF with excess unlabelled GA10; GA10 plus supF with excess AG10.

| Molecule | Occurrence of supF mutations at base pair 167 (supF gene) | Binding of oligonucleotide to supF gene fragment [1] | Competition with 32P-labelled AG10 for binding to supF [1] |
| --- | --- | --- | --- |
| COc1c2occc2cc2ccc(=O)oc12 [8-methoxypsoralen] | none of them occur at position 167; also recorded: none were found to occur at base pair 167 | – | – |
| 5′AGGAAGGGGG 3′ (DNA, 5' {Pso}, backbone not given here; triplex-forming oligonucleotide) [AG10, 10 base homopurine oligonucleotide capable of forming a triple strand at positions 167–176 in the supF gene] | – | Binding of labelled AG10 to the added supF DNA was demonstrated; also recorded: bound specifically to the supF gene | competed with the ^32P-labelled AG10 |
| 5′ GGGGGAAGGA 3′ (DNA, 5' {Pso}, backbone not given here; triplex-forming reverse control oligonucleotide) [GA10] | – | no binding; also recorded: failed to bind to supF; also recorded: did not bind | did not compete with AG10; also recorded: failed to bind to supF or to compete with AG10 for binding |
